The text below walks through data of ChEMBL document CHEMBL1138934, “Indenone derivatives: a novel template for peroxisome proliferator-activated receptor gamma (PPARgamma) agonists” (J Med Chem, 2006).

SMILES strings stand for the structures. A value given as a limit tells only on which side of the number the result lay.

For one assay, the target named is T1, Peroxisome proliferator-activated receptor alpha (Homo sapiens, UniProt Q07869).
T1 sequence (Q07869 whole entry): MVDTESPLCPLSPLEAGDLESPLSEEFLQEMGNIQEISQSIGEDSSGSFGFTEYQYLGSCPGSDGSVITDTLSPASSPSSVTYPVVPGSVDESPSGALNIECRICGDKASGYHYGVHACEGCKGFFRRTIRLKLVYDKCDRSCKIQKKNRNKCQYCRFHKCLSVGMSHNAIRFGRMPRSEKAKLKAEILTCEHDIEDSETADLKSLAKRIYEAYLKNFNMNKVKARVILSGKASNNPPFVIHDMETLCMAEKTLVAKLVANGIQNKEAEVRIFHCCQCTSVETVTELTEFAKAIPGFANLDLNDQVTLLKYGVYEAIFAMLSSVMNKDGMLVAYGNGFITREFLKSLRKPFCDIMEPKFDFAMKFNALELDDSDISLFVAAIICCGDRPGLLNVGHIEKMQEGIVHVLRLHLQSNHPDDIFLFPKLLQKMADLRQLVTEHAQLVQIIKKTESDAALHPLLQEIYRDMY
As to the kind of experiment: Activity at human PPAR alpha.
A word on the EC50: it is the concentration needed to bring the measured effect to its halfway point. A lower EC50 goes with a more potent agent. In turn, `CCOC(=O)C1=C(c2ccccc2)c2ccc(OC)cc2C1=O` showed an EC50 of over 100 µM.

For the next assay, the target named is T2, Peroxisome proliferator-activated receptor gamma (Homo sapiens, UniProt P37231).
T2 sequence (P37231 whole entry): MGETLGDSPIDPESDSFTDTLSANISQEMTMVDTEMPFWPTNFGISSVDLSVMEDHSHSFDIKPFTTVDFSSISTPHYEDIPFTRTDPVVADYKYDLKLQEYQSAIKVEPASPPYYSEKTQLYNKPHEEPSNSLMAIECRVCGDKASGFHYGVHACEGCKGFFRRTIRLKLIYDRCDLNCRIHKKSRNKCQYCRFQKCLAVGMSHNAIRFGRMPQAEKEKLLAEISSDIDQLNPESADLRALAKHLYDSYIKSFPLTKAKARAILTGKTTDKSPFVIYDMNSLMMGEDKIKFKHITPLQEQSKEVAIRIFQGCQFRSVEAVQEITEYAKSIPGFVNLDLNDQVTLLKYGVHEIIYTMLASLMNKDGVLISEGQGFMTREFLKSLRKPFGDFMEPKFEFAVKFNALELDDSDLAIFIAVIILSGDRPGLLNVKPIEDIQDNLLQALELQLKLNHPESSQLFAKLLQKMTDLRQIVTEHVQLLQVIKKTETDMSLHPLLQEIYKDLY
Description: Activity at human PPAR gamma transfected in NIH3T3 cells by luciferase activity assay
Take `CCOC(=O)C1=C(c2ccccc2)c2ccc(OCCCc3ccccc3)cc2C1=O`: the response was half-maximal at 50 nM (EC50).

For `CCOC(=O)C1=C(C23CC4CC(CC(C4)C2)C3)c2ccc(OC)cc2C1=O`, the response was half-maximal at 2500 nM (EC50).

For the compound `CCOC(=O)C1=C(c2ccccc2)c2ccc(OC)cc2C1=O`, a half-maximal response (EC50) required 300 nM.

`CCOC(=O)C1=C(c2ccccc2)c2ccc(OC)cc2C1` had an EC50 of over 10000 nM. Consider `CCOC(=O)CC1=C(c2ccccc2)c2ccc(OC)cc2C1=O`, for which it took 300 nM to reach a half-maximal effect (EC50).

In the case of `CCOC(=O)C1=C(c2ccccc2)c2ccc(OCc3ccccc3)cc2C1=O`, a half-maximal response (EC50) required 220 nM. For `CCOC(=O)C1=C(c2ccccc2)c2ccc(OC)cc2/C1=N/O`, the EC50 was over 10000 nM.

In turn, `CCOC(=O)C1=C(c2ccccc2)c2ccc(OCCc3ccccc3)cc2C1=O` showed a concentration for a half-maximal effect (EC50) of 210 nM. Regarding `CCOC(=O)C1=C(c2ccoc2)c2ccc(OC)cc2C1=O`, the EC50 is 1000 nM.
